Results from patent publication US11814367B2, “Inhibitors of glycogen synthase 1 (GYS1) and methods of use thereof” (Maze Therapeutics, Inc., priority 2021, dated 2023).

Tests used:
[1] = molecular target: hGYS1 enzyme (recombinant hGYS1/GN1 protein) (Homo sapiens (Human), UniProt P13807); assay: GYS1 coupled enzyme assay (PK/LDH); format: biochemical; settings: hGYS1/GN1 50 nM, UDP-Glucose 0.8 mM, G6P 1 mM; geometric mean of at least 2 runs
[2] = test system: hGYS1 enzyme / glycogen synthesis in HeLa cells; assay: GYS1 cell based assay (glycogen synthesis, Glucose-glo); set-up: species or system human; settings: 24 h incubation, 20 mM glucose, geometric mean of at least 2 runs
Summary of the method: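 HeLa cells starved 24 h in medium containing only 1× Glutamax were plated onto compound in medium with 20 mM glucose (1% DMSO final) for 24 h, 37 °C, 5% CO2. Acid lysates were Tris-quenched, glucoamylase-digested (pH 5.3, 1 h, 37 °C) and read by Glucose-glo luminescence. IC50 came from Hill fits, as geometric mean of ≥2 runs.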

[3] = molecular target: hGYS2 enzyme (recombinant hGYS2/GN1 protein) (Homo sapiens (Human), UniProt P54840); assay: GYS2 coupled enzyme assay (PK/LDH); format: biochemical; settings: geometric mean of at least 2 assay runs on separate days, read-out: Avg_IC50
Summary of the method: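 Continuous PK/LDH-coupled readout of NADH loss at 340 nm over 10 min, with 200 nM hGYS2/GN1 and 2 mM each of UDP-glucose, glucose-6-phosphate and PEP, in 50 mM Tris pH 7.5 with 0.2% glycogen and 2.5% DMSO. Slopes were normalized to controls and IC50s fit to a Hill curve from duplicates.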

Chain of hGYS1 enzyme (recombinant hGYS1/GN1 protein) (P13807 whole entry): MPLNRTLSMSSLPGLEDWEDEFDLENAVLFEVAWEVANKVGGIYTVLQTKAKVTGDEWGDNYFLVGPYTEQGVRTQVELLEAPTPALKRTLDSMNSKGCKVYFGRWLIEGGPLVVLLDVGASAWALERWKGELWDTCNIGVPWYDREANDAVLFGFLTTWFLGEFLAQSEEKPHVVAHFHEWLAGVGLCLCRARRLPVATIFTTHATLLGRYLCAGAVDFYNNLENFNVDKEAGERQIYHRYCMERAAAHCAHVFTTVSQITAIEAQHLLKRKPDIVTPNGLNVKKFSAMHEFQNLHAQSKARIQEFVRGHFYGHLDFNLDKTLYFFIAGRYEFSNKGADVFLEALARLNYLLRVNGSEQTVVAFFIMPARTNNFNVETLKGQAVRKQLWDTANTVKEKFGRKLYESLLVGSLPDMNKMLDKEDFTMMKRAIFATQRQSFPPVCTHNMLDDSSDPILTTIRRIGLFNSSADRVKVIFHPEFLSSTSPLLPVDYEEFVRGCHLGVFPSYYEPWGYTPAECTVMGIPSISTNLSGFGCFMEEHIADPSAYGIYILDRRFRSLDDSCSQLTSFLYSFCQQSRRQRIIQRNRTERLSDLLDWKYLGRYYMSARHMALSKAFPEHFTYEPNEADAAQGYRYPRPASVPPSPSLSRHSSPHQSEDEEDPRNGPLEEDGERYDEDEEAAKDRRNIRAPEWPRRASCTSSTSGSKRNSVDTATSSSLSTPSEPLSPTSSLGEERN
Chain of hGYS1 enzyme (recombinant hGYS1/GN1 protein) (P46976 whole entry partner): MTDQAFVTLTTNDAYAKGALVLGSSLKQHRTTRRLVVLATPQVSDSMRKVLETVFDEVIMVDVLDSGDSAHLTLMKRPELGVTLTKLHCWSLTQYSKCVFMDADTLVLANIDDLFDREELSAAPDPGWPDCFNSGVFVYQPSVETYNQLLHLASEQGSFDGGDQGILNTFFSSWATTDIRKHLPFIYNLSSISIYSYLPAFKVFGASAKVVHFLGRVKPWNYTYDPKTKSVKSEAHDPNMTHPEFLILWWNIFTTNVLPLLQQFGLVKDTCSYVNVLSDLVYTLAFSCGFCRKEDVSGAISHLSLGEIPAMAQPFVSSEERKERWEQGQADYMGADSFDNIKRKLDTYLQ
Chain of hGYS2 enzyme (recombinant hGYS2/GN1 protein) (P54840 whole entry): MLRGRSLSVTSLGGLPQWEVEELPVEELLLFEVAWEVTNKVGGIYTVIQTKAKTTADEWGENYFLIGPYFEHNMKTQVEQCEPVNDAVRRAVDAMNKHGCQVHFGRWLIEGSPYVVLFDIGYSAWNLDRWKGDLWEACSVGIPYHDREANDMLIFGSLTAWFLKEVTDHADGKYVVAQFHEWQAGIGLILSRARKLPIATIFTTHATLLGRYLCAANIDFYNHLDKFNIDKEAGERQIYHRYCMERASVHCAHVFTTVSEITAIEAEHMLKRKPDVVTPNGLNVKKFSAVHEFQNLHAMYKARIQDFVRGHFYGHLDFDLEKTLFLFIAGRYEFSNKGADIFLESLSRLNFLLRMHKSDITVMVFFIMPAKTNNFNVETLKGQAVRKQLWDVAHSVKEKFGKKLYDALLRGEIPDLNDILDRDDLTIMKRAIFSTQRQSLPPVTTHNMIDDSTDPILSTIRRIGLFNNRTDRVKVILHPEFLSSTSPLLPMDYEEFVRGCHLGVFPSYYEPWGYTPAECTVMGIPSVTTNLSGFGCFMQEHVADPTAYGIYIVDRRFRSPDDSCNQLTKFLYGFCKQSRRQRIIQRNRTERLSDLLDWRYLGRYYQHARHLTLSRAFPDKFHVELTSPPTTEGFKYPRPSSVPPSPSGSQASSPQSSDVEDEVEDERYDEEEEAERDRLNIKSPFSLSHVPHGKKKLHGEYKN
Chain of hGYS2 enzyme (recombinant hGYS2/GN1 protein) (P46976 whole entry partner): as the sequence (P46976 whole entry partner) above

## CC(C)c1ccc([C@@H](NC(=O)[C@@H]2C[C@@H](F)CN2C(=O)Cn2cnc3ccccc32)c2ccccc2)cc1 [Compound 77, (2S,4R)-1-[2-(1H-1,3-benzodiazol-1-yl)acetyl]-4-fluoro-N-[(S)-phenyl[4-(propan-2-yl)phenyl]methyl]pyrrolidine-2-carboxamide]
[1]
  IC50: 8 nM
[2]; Homo sapiens, HeLa, 24 h
  IC50: 120 nM
[3]
  IC50: > 100000 nM

## Cc1cn(CC(=O)N2C[C@H](F)C[C@H]2C(=O)N[C@@H](c2ccccc2)c2ccc(C(C)C)c(F)c2)c(=O)[nH]c1=O [Compound 352, (2S,4R)-4-fluoro-N-[(S)-[3-fluoro-4-(propan-2-yl)phenyl](phenyl)methyl]-1-[2-(5-methyl-2,4-dioxo-1,2,3,4-tetrahydropyrimidin-1-yl)acetyl]pyrrolidine-2-carboxamide]
[1]
  IC50: 5 nM
[2]; Homo sapiens, HeLa, 24 h
  IC50: 110 nM
[3]
  IC50: > 100000 nM

## O=C(N[C@@H](c1ccccc1)c1ccc(C2CC(F)(F)C2)c(F)c1)[C@@H]1C[C@@H](F)CN1C(=O)Cn1cnc2ccccc21 [Compound 549, (2S,4R)-1-[2-(1H-1,3-benzodiazol-1-yl)acetyl]-N-[(S)-[4-(3,3-difluorocyclobutyl)-3-fluorophenyl](phenyl)methyl]-4-fluoropyrrolidine-2-carboxamide]
[1]
  IC50: 6 nM
[2]; Homo sapiens, HeLa, 24 h
  IC50: 120 nM
[3]
  IC50: > 100000 nM

## O=C(N[C@@H](c1ccccc1)c1ccc(C2CC2)c(F)c1)[C@@H]1C[C@@H](F)CN1C(=O)Cn1cnc2ccccc21 [Compound 417, (2S,4R)-1-(2-(1H-benzo[d]imidazol-1-yl)acetyl)-N—((S)-(4-cyclopropyl-3-fluorophenyl)(phenyl)methyl)-4-fluoropyrrolidine-2-carboxamide]
[1]
  IC50: 23 nM
[2]; Homo sapiens, HeLa, 24 h
  IC50: 450 nM
[3]
  IC50: > 100000 nM

## CN(C)C(=O)NCC(=O)N1C[C@H](F)C[C@H]1C(=O)N[C@@H](c1ccccc1)c1ccc(C2CC(F)(F)C2)c(F)n1 [Compound 507, (2S,4R)-N-[(S)-[5-(3,3-difluorocyclobutyl)-6-fluoropyridin-2-yl](phenyl)methyl]-1-{2-[(dimethylcarbamoyl)amino]acetyl}-4-fluoropyrrolidine-2-carboxamide]
[1]
  IC50: 22 nM
[2]; Homo sapiens, HeLa, 24 h
  IC50: 260 nM
[3]
  IC50: > 100000 nM

## CC(C(=O)N1C[C@H](F)C[C@H]1C(=O)N[C@@H](c1ccccc1)c1ccc(C2(C)CC2)c(F)n1)n1cnc2ccccc21 (single isomer, unassigned) [Compound 586, (2S,4R)-1-((S) or (R)-2-(1H-benzo[d]imidazol-1-yl)propanoyl)-4-fluoro-N—((S)-(6-fluoro-5-(1-methylcyclopropyl)pyridin-2-yl)(phenyl)methyl)pyrrolidine-2-carboxamide]
[1]
  IC50: 10 nM
[2]
  IC50: 150 nM
[3]
  IC50: > 100000 nM

## Cc1nn(CC(=O)N2C[C@H](F)C[C@H]2C(=O)N[C@@H](c2ccccc2)c2ccc(C3CC3)c(F)n2)c(=O)o1 [Compound 316, (2S,4R)-N-[(S)-(5-cyclopropyl-6-fluoropyridin-2-yl)(phenyl)methyl]-4-fluoro-1-[2-(5-methyl-2-oxo-2,3-dihydro-1,3,4-oxadiazol-3-yl)acetyl]pyrrolidine-2-carboxamide]
[1]
  IC50: 37 nM
[2]; Homo sapiens, HeLa, 24 h
  IC50: 930 nM
[3]
  IC50: > 100000 nM

## CC(C)c1ccc([C@@H](NC(=O)[C@@H]2C[C@@H](F)CN2C(=O)Cc2nn(C)c(=O)[nH]2)c2ccccc2)nc1 [Compound 263, (2S,4R)-4-fluoro-1-[2-(1-methyl-5-oxo-4,5-dihydro-1H-1,2,4-triazol-3-yl)acetyl]-N-[(S)-phenyl[5-(propan-2-yl)pyridin-2-yl]methyl]pyrrolidine-2-carboxamide]
[1]
  IC50: 80 nM
[2]; Homo sapiens, HeLa, 24 h
  IC50: 1950 nM
[3]
  IC50: > 100000 nM

## CCn1c(=O)c(C)cn(CC(=O)N2C[C@H](F)C[C@H]2C(=O)N[C@@H](c2ccccc2)c2ccc(C3CC3)c(F)n2)c1=O [Compound 733, (2S,4R)-N-[(S)-(5-cyclopropyl-6-fluoropyridin-2-yl)(phenyl)methyl]-1-[2-(3-ethyl-5-methyl-2,4-dioxo-1,2,3,4-tetrahydropyrimidin-1-yl)acetyl]-4-fluoropyrrolidine-2-carboxamide]
[1]
  IC50: 5 nM
[2]; Homo sapiens, HeLa, 24 h
  IC50: 150 nM
[3]
  IC50: > 100000 nM

## Cc1coc(CC(=O)N2C[C@H](F)C[C@H]2C(=O)N[C@@H](c2ccccc2)c2ccc(C3CC(F)(F)C3)cn2)n1 [Compound 540, (2S,4R)-N-[(S)-[5-(3,3-difluorocyclobutyl)pyridin-2-yl] (phenyl)methyl]-4-fluoro-1-[2-(4-methyl-1,3-oxazol-2-yl)acetyl] pyrrolidine-2-carboxamide]
[1]
  IC50: 47 nM
[2]; Homo sapiens, HeLa, 24 h
  IC50: 590 nM
[3]
  IC50: > 100000 nM

## CCN(CC)c1cnn(CC(=O)N2C[C@H](F)C[C@H]2C(=O)N[C@@H](c2ccccc2)c2ccc(C(C)C)cn2)n1 [Compound 278, (2S,4R)-1-{2-[4-(diethylamino)-2H-1,2,3-triazol-2-yl]acety}-4-fluoro-N-N-[(S)-phenyl[5-(propan-2-yl)pyridin-2-yl]methyl]pyrrolidine-2-carboxamide]
[1]
  IC50: 11 nM
[2]; Homo sapiens, HeLa, 24 h
  IC50: 230 nM
[3]
  IC50: > 100000 nM

## O=C(N[C@@H](c1ccccc1)c1ccc(C2CC2)c(F)n1)[C@@H]1C[C@@H](F)CN1C(=O)Cn1cc(C(F)(F)F)cn1 [Compound 728, (2S,4R)-N-[(S)-(5-cyclopropyl-6-fluoropyridin-2-yl)(phenyl)methyl]-4-fluoro-1-{2-[4-(trifluoromethyl)-1H-pyrazol-1-yl]acetyl}pyrrolidine-2-carboxamide]
[1]
  IC50: 36 nM
[2]; Homo sapiens, HeLa, 24 h
  IC50: 790 nM
[3]
  IC50: > 100000 nM

## CC(C)c1c(F)cc(C(NC(=O)[C@@H]2C[C@@H](F)CN2C(=O)Cc2cnn[nH]2)c2ccccc2)cc1F (single isomer, unassigned) [Compound 667, (2S,4R)-N-[(S) or (R)-[3,5-difluoro-4-(propan-2-yl)phenyl](phenyl)methyl]-4-fluoro-1-[2-(1H-1,2,3-triazol-5-yl)acetyl]pyrrolidine-2-carboxamide]
[1]
  IC50: 23 nM
[2]; Homo sapiens, HeLa, 24 h
  IC50: 290 nM
[3]
  IC50: > 100000 nM

## O=C(N[C@@H](c1ccccc1)c1ccc(C2CC2)c(F)c1)[C@@H]1C[C@@H](F)CN1C(=O)COC(=O)N1CCN(CC2CC2)CC1 [Compound 447, 2-[(2S,4R)-2-{[(S)-(4-cyclopropyl-3-fluorophenyl)(phenyl)methyl]carbamoyl}-4-fluoropyrrolidin-1-yl]-2-oxoethyl 4-(cyclopropylmethyl) piperazine-1-carboxylate]
[1]
  IC50: 96 nM
[2]; Homo sapiens, HeLa, 24 h
  IC50: 5320 nM
[3]
  IC50: > 100000 nM

## O=C(N[C@@H](c1ccccc1)c1ccc(C2CC2)c(F)c1)[C@@H]1C[C@@H](F)CN1C(=O)Cc1noc(=O)[nH]1 [Compound 492, (2S,4R)-N-[(S)-(4-cyclopropyl-3-fluorophenyl)(phenyl)methyl]-4-fluoro-1-[2-(5-oxo-4,5-dihydro-1,2,4-oxadiazol-3-yl)acetyl]pyrrolidine-2-carboxamide]
[1]
  IC50: 138 nM
[2]; Homo sapiens, HeLa, 24 h
  IC50: > 30000 nM
[3]
  IC50: > 100000 nM

## Cc1cnc(CC(=O)N2C[C@H](F)C[C@H]2C(=O)N[C@@H](c2ccccc2)c2ccc(C3CC3)c(F)n2)o1 [Compound 313, (2S,4R)-N-[(S)-(5-cyclopropyl-6-fluoropyridin-2-yl)(phenyl)methyl]-4-fluoro-1-[2-(5-methyl-1,3-oxazol-2-yl)acetyl]pyrrolidine-2-carboxamide]
[1]
  IC50: 39 nM
[2]; Homo sapiens, HeLa, 24 h
  IC50: 860 nM
[3]
  IC50: > 100000 nM

## Cc1nn[nH]c1CC(=O)N1C[C@H](F)C[C@H]1C(=O)N[C@@H](c1ccccc1)c1ccc(C(C)C)c(F)c1 [Compound 367, (2S,4R)-4-fluoro-N-[(S)-[3-fluoro-4-(propan-2-yl)phenyl](phenyl)methyl]-1-[2-(4-methyl-1H-1,2,3-triazol-5-yl)acetyl]pyrrolidine-2-carboxamide]
[1]
  IC50: 16 nM
[2]; Homo sapiens, HeLa, 24 h
  IC50: 470 nM
[3]
  IC50: > 100000 nM

## Cc1coc(CC(=O)N2C[C@H](F)C[C@H]2C(=O)N[C@@H](c2ccccc2)c2ccc(C3CC(F)(F)C3)c(F)n2)n1 [Compound 511, (2S,4R)-N-[(S)-[5-(3,3-difluorocyclobutyl)-6-fluoropyridin-2-yl](phenyl)methyl]-4-fluoro-1-[2-(4-methyl-1,3-oxazol-2-yl)acetyl]pyrrolidine-2-carboxamide]
[1]
  IC50: 12 nM
[2]; Homo sapiens, HeLa, 24 h
  IC50: 260 nM
[3]
  IC50: > 100000 nM

## Cc1ccc2c(CC(=O)N3C[C@H](F)C[C@H]3C(=O)N[C@@H](c3ccccc3)c3ccc(C(C)C)cn3)cccc2n1 [Compound 257, (2S,4R)-4-fluoro-1-[2-(2-methylquinolin-5-yl)acetyl]-N-[(S)-phenyl[5-(propan-2-yl)pyridin-2-yl]methyl]pyrrolidine-2-carboxamide]
[1]
  IC50: 7 nM
[2]; Homo sapiens, HeLa, 24 h
  IC50: 240 nM
[3]
  IC50: > 100000 nM

## O=C(N[C@@H](c1ccccc1)c1ccc(C2CC(F)(F)C2)c(F)n1)[C@@H]1C[C@@H](F)CN1C(=O)Cn1ccc(=O)[nH]c1=O [Compound 514, (2S,4R)-N-[(S)-[5-(3,3-difluorocyclobutyl)-6-fluoropyridin-2-yl](phenyl)methyl]-1-[2-(2,4-dioxo-1,2,3,4-tetrahydropyrimidin-1-yl)acetyl]-4-fluoropyrrolidine-2-carboxamide]
[1]
  IC50: 7 nM
[2]; Homo sapiens, HeLa, 24 h
  IC50: 770 nM
[3]
  IC50: > 100000 nM
